Measured values reported in PubChem BioAssay (NCI).
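Five compound concentrations were applied to cells in 96-well plates for 48 hours; endpoints were derived by simple linear interpolation of the resulting dose-response curve. GI50: concentration for 50% inhibition of growth. TGI: total growth inhibition.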

How the values were obtained:
Experiment in all cases: inhibition of tumour cell growth, NCI panel, 48 h
TK-10 renal = system: TK-10 renal
HCT-15 colon = system: HCT-15 colon
SNB-19 CNS = system: SNB-19 CNS
SR leukemia = system: SR leukemia
CAKI-1 renal = system: CAKI-1 renal
MOLT-4 leukemia = system: MOLT-4 leukemia
HS 578T breast = system: HS 578T breast
OVCAR-8 ovarian = system: OVCAR-8 ovarian
NCI-H522 lung = system: NCI-H522 lung
RPMI-8226 leukemia = system: RPMI-8226 leukemia
SN12C renal = system: SN12C renal
MALME-3M melanoma = system: MALME-3M melanoma
SK-MEL-2 melanoma = system: SK-MEL-2 melanoma
SK-OV-3 ovarian = system: SK-OV-3 ovarian
COLO 205 colon = system: COLO 205 colon
SF-295 CNS = system: SF-295 CNS
KM12 colon = system: KM12 colon
T-47D breast = system: T-47D breast
HCT-116 colon = system: HCT-116 colon
OVCAR-3 ovarian = system: OVCAR-3 ovarian
K-562 leukemia = system: K-562 leukemia
U251 CNS = system: U251 CNS
OVCAR-5 ovarian = system: OVCAR-5 ovarian
A549 NSCLC = system: A549 NSCLC
NCI/ADR-RES ovarian = system: NCI/ADR-RES ovarian
ACHN renal = system: ACHN renal
HOP-62 NSCLC = system: HOP-62 NSCLC
MCF7 breast = system: MCF7 breast
DU-145 prostate = system: DU-145 prostate
UACC-62 melanoma = system: UACC-62 melanoma
OVCAR-4 ovarian = system: OVCAR-4 ovarian
A498 renal = system: A498 renal
NCI-H460 lung = system: NCI-H460 lung
CCRF-CEM leukemia = system: CCRF-CEM leukemia
RXF 393 renal = system: RXF 393 renal
786-0 renal = system: 786-0 renal
HCC-2998 colon = system: HCC-2998 colon
IGROV1 ovarian = system: IGROV1 ovarian
SK-MEL-28 melanoma = system: SK-MEL-28 melanoma
LOX IMVI melanoma = system: LOX IMVI melanoma
MDA-MB-435 = system: MDA-MB-435
SK-MEL-5 melanoma = system: SK-MEL-5 melanoma
UO-31 renal = system: UO-31 renal
HOP-92 NSCLC = system: HOP-92 NSCLC
M14 melanoma = system: M14 melanoma
PC-3 prostate = system: PC-3 prostate
SF-268 CNS = system: SF-268 CNS
NCI-H23 lung = system: NCI-H23 lung

SMILES: Cc1ccc(N2C(=O)C(Cl)=C(Nc3cccc(O)c3)C2=O)cc1Cl
- GI50 (TK-10 renal): 18.5 µM
- TGI (TK-10 renal): 33.4 µM
- GI50 (HCT-15 colon): 18.6 µM
- TGI (HCT-15 colon): 40.1 µM
- GI50 (SNB-19 CNS): 23.3 µM
- TGI (SNB-19 CNS): 65.5 µM
- GI50 (SR leukemia): 8.06 µM
- TGI (SR leukemia): 30.4 µM
- GI50 (CAKI-1 renal): 17 µM
- TGI (CAKI-1 renal): 34.6 µM
- GI50 (MOLT-4 leukemia): 3.13 µM
- TGI (MOLT-4 leukemia): 21.2 µM
- GI50 (HS 578T breast): 17.4 µM
- TGI (HS 578T breast): 42.1 µM
- GI50 (OVCAR-8 ovarian): 16.8 µM
- TGI (OVCAR-8 ovarian): 43.5 µM
- GI50 (NCI-H522 lung): 31.8 µM
- TGI (NCI-H522 lung): > 100 µM
- GI50 (RPMI-8226 leukemia): 3.95 µM
- TGI (RPMI-8226 leukemia): 28.6 µM
- GI50 (SN12C renal): 19.7 µM
- TGI (SN12C renal): 44.1 µM
- GI50 (MALME-3M melanoma): 17.2 µM
- TGI (MALME-3M melanoma): 31.4 µM
- GI50 (SK-MEL-2 melanoma): 38 µM
- TGI (SK-MEL-2 melanoma): > 100 µM
- GI50 (SK-OV-3 ovarian): 21 µM
- TGI (SK-OV-3 ovarian): 44.2 µM
- GI50 (COLO 205 colon): 26.4 µM
- TGI (COLO 205 colon): 73 µM
- GI50 (SF-295 CNS): 17.8 µM
- TGI (SF-295 CNS): 36.5 µM
- GI50 (KM12 colon): 17 µM
- TGI (KM12 colon): 31.6 µM
- GI50 (T-47D breast): 49.6 µM
- TGI (T-47D breast): > 100 µM
- GI50 (HCT-116 colon): 13.9 µM
- TGI (HCT-116 colon): 27.8 µM
- GI50 (OVCAR-3 ovarian): 15.3 µM
- TGI (OVCAR-3 ovarian): 28.9 µM
- GI50 (K-562 leukemia): 18.9 µM
- TGI (K-562 leukemia): 52.8 µM
- GI50 (U251 CNS): 15.7 µM
- TGI (U251 CNS): 31 µM
- GI50 (OVCAR-5 ovarian): 16.5 µM
- TGI (OVCAR-5 ovarian): 31.9 µM
- GI50 (A549 NSCLC): 12.8 µM
- TGI (A549 NSCLC): 29.7 µM
- GI50 (NCI/ADR-RES ovarian): 21.6 µM
- TGI (NCI/ADR-RES ovarian): 54.7 µM
- GI50 (ACHN renal): 17.5 µM
- TGI (ACHN renal): 32.7 µM
- GI50 (HOP-62 NSCLC): 17.7 µM
- TGI (HOP-62 NSCLC): 36.3 µM
- GI50 (MCF7 breast): 6.16 µM
- TGI (MCF7 breast): 32 µM
- GI50 (DU-145 prostate): 16.9 µM
- TGI (DU-145 prostate): 31.5 µM
- GI50 (UACC-62 melanoma): 17 µM
- TGI (UACC-62 melanoma): 32.6 µM
- GI50 (OVCAR-4 ovarian): 26.9 µM
- TGI (OVCAR-4 ovarian): 76.3 µM
- GI50 (A498 renal): 12.4 µM
- TGI (A498 renal): 25.5 µM
- GI50 (NCI-H460 lung): 11.6 µM
- TGI (NCI-H460 lung): 26.7 µM
- GI50 (CCRF-CEM leukemia): 18.5 µM
- TGI (CCRF-CEM leukemia): 46.8 µM
- GI50 (RXF 393 renal): 0.549 µM
- TGI (RXF 393 renal): 22.2 µM
- GI50 (786-0 renal): 19.3 µM
- TGI (786-0 renal): 52 µM
- GI50 (HCC-2998 colon): 14.5 µM
- TGI (HCC-2998 colon): 29.6 µM
- GI50 (IGROV1 ovarian): 31.5 µM
- TGI (IGROV1 ovarian): > 100 µM
- GI50 (SK-MEL-28 melanoma): 22.4 µM
- TGI (SK-MEL-28 melanoma): 49.8 µM
- GI50 (LOX IMVI melanoma): 16.4 µM
- TGI (LOX IMVI melanoma): 33.2 µM
- GI50 (MDA-MB-435): 16.6 µM
- TGI (MDA-MB-435): 34 µM
- GI50 (SK-MEL-5 melanoma): 15 µM
- TGI (SK-MEL-5 melanoma): 28.9 µM
- GI50 (UO-31 renal): 26.1 µM
- TGI (UO-31 renal): 75.8 µM
- GI50 (HOP-92 NSCLC): 15.7 µM
- TGI (HOP-92 NSCLC): 37.6 µM
- GI50 (M14 melanoma): 17.6 µM
- TGI (M14 melanoma): 32.3 µM
- GI50 (PC-3 prostate): 12.5 µM
- TGI (PC-3 prostate): 30.9 µM
- GI50 (SF-268 CNS): 18.3 µM
- TGI (SF-268 CNS): 37.2 µM
- GI50 (NCI-H23 lung): 15.2 µM
- TGI (NCI-H23 lung): 30.5 µM
